{"source": "paper PMC9281440", "about": "“In Vivo Distribution and Therapeutic Efficacy of Radioiodine-Labeled pH-Low Insertion Peptide Variant 3 in a Mouse Model of Breast Cancer” (Molecular Imaging, 2022)", "key": {"[1]": {"system": "SK-BR-3 tumor-bearing nude mice", "experiment": "Micro-SPECT/CT imaging and distribution of 125I-labeled pHLIPs", "format": "in vivo, mouse", "procedure": "(§1) Five-week-old female athymic BALB/c nude mice (Shanghai Slaccas Experiment Animal Corp., Shanghai, China) were used in our study. Mouse xenograft models of MDA-MB-231, 4T1, and SK-BR-3 cells were produced by the subcutaneous injection of 5 × 10^6 cells (suspended in 150 μL PBS) into the right axilla of each mouse. The mice were used in subsequent experiments when tumor diameter reached 0.5-0.9 cm. The study protocol was approved by the institutional review board and by the Experimental Animal Center of Ruijin Hospital affiliated to the School of Medicine of Shanghai Jiao Tong University.\n(§2) Three days before micro-SPECT/CT imaging, 300 μL of 1% Kl solution was administered to mice by oral gavage once a day, and 0.1% Kl was added into the drinking water to block thyroid gland activity. Mice-bearing MDA-MB-231, 4T1, or SK-BR-3 tumors were intravenously injected with 3.7 MBq of ^125I-WT-pHLIP or ^125I-Var3-pHLIP. Each group contained four mice. The mice were anesthetized by isoflurane inhalation, placed in the prone position, and scanned using a four-head SPECT/CT system (U-SPECT/CT, MI-Lab, Netherlands) and dedicated multipinhole apertures with a diameter of 1.5 mm at 1, 2, 4, 24, and 48 h after injection of ^125I-labeled peptides. CT images were acquired after static SPECT imaging (10 min/frame). The images were reconstructed using U-SPECT REC software and analyzed using PMOD software version 3.9 (Switzerland). Regions of interest (ROIs) were drawn in the tumors and organs, including the brain, heart, liver, lungs, kidneys, intestine, and bladder, at various time points. The radioactivity per gram (ID%/g) in the ROIs was measured to obtain the dynamic tumor-to-background ratio (TBR, muscle tissue was used as the background) and the in vivo distribution and kinetics of ^125I-WT-pHLIP and ^125I-Var3-pHLIP in the xenograft models of BC."}, "[2]": {"system": "MDA-MB-231 tumor-bearing nude mice", "experiment": "Micro-SPECT/CT imaging and distribution of 125I-labeled pHLIPs", "format": "in vivo, mouse", "conditions": "MDA-MB-231 xenografts", "procedure": "as §1, §2"}, "MDA-MB-231 cells": {"system": "MDA-MB-231 cells", "experiment": "In vitro cell binding assay of 125I-labeled peptides", "format": "cell-based, human", "conditions": "37°C, mean ± SD, triplicate; for binding fraction to cells, B/(B + F) × 100%: γ counter", "procedure": "Cells were incubated with ^125I-WT-pHLIP or ^125I-Var3-pHLIP for 1 h at 37°C in the medium at different pH values ranging from 6.2 to 7.8 (6.2, 6.6, 7.0, 7.4, 7.8). At the same time, cells in the medium at pH 6.2 were further incubated with ^125I-labeled peptide with an excess of unlabeled peptide (25 μg/well). The supernatant was aspirated into a tube. The cells were then washed twice with PBS of the corresponding pH to remove unbound radioactivity. The wash solution was also added to the supernatant tube containing free radioactivity (F). The cells with bound radioactivity (B) were completely lysed with 300 μl sodium hydroxide and aspirated into a cell tube. The radioactive counts of the cell and supernatant tube were measured by a γ counter. The cell binding fraction of the ^125I-labeled peptides was calculated as B/(B + F) × 100%. All experiments were performed in triplicate."}, "[3]": {"experiment": "In vitro stability of radiolabeled peptides in PBS at room temperature", "format": "physicochemical", "conditions": "room temperature (25°C), PBS buffer, radiochemical purity, thin-layer chromatography", "procedure": "WT-pHLIP and Var3-pHLIP were labeled with ^125I for in vivo imaging experiments, and Var3-pHLIP was labeled with ^131I for therapeutic efficacy experiments. Radioactive iodine binds to tyrosine residues in pHLIPs. Peptides were dissolved in 200 μL of 0.02 M PBS (pH 7.4) to reach a concentration of 1 mg/mL and mixed with 10 μL of Na^125I (74 MBq) or 20 μL of Na^131I (925 MBq). Chloramine-T (20 μL, 5 mg/mL) was added to the test tubes and mixed for 70 s at room temperature. The reaction was stopped by adding 200 μL of sodium metabisulfite (5 mg/mL). The peptides were eluted in ethanol through a C18 column equilibrated with 20 mL of 100% ethanol and 20 mL of distilled water. The radioactive purity of ^125I-WT-pHLIP, ^125I-Var3-pHLIP, and ^131I-Var3-pHLIP was determined using thin-layer chromatography. Furthermore, the radiochemical purity of ^125I-WT-pHLIP, ^125I-Var3-pHLIP, and ^131I-Var3-pHLIP was measured, and chemical stability was determined at 24 and 48 h at room temperature (25°C) in PBS and at 37°C in serum."}}, "note": "Values joined by “and” are separate entries in the source; they are usually repeats but may differ in a detail not shown here. Identical values can stand only once. Peptide text beside a SMILES is read from it."}
{"smiles": "CC(C)C[C@H](NC(=O)[C@H](Cc1ccc(O)c(I)c1)NC(=O)[C@H](C)NC(=O)[C@H](CCCNC(=N)N)NC(=O)[C@H](Cc1c[nH]c2ccccc12)NC(=O)[C@@H]1CCCN1C(=O)[C@H](CC(N)=O)NC(=O)[C@H](CCC(N)=O)NC(=O)[C@H](CC(=O)O)NC(=O)[C@H](CC(=O)O)NC(=O)[C@H](CS)NC(=O)[C@H](C)N)C(=O)N[C@@H](CC(=O)O)C(=O)N[C@@H](CC(C)C)C(=O)N[C@@H](CC(C)C)C(=O)N[C@@H](Cc1ccccc1)C(=O)N1CCC[C@H]1C(=O)N[C@H](C(=O)N[C@@H](CC(=O)O)C(=O)N[C@H](C(=O)N[C@@H](CC(C)C)C(=O)N[C@@H](CC(C)C)C(=O)N[C@@H](CC(C)C)C(=O)N[C@@H](CC(=O)O)C(=O)N[C@@H](CC(C)C)C(=O)N[C@@H](CC(C)C)C(=O)N[C@@H](Cc1c[nH]c2ccccc12)C(=O)N[C@@H](CCCCN)C(=O)O)[C@@H](C)O)[C@@H](C)O", "note": "[125I-Var3-pHLIP] (HELM PEPTIDE1{A.C.D.D.Q.N.P.W.R.A.[O=C([C@H](Cc1ccc(O)c(I)c1)N[*:1])[*:2]].L.D.L.L.F.P.T.D.T.L.L.L.D.L.L.W.K}$$$$V2.0; N-terminus and C-terminus assumed)", "values": [{"measurement": "Distribution, Tumor", "setting": "[1]; SK-BR-3 tumor-bearing nude mice, 2 h pi, 3.7 MBq iv, micro-SPECT/CT ROI, mean ± SD, n = 4", "value": "2.93 ± 0.71 %ID/g and 2.93 ± 0.70 %ID/g"}, {"measurement": "time after injection at which radioactive count in xenografts peaked", "setting": "[1]; SK-BR-3 xenografts", "value": 2, "unit": "h"}, {"measurement": "time after injection at which radioactive count in xenografts peaked", "setting": "[2]", "value": 2, "unit": "h"}, {"measurement": "binding fraction to cells, B/(B + F) × 100%", "setting": "MDA-MB-231 cells; pH 6.2, 1 h", "value": "24.90 ± 0.96", "unit": "%"}, {"measurement": "binding fraction to cells with an excess of unlabeled peptide", "setting": "MDA-MB-231 cells; pH 6.2, excess unlabeled peptide 25 μg/well", "value": "1.50 ± 0.11", "unit": "%"}, {"measurement": "binding fraction to cells, B/(B + F) × 100%", "setting": "MDA-MB-231 cells; pH 6.6, 1 h", "value": "23.88 ± 0.55", "unit": "%"}, {"measurement": "binding fraction to cells, B/(B + F) × 100%", "setting": "MDA-MB-231 cells; pH 7.0, 1 h", "value": "23.40 ± 0.44", "unit": "%"}, {"measurement": "binding fraction to cells, B/(B + F) × 100%", "setting": "MDA-MB-231 cells; pH 7.4, 1 h", "value": "12.3 ± 0.80", "unit": "%"}, {"measurement": "binding fraction to cells, B/(B + F) × 100%", "setting": "MDA-MB-231 cells; pH 7.8, 1 h", "value": "1.30 ± 0.10", "unit": "%"}, {"measurement": "stability", "setting": "[3]; 24 h", "value": "> 95", "unit": "%"}, {"measurement": "stability", "setting": "[3]; 48 h", "value": "> 90", "unit": "%"}]}
